Legend:
[1] = molecular target: T1, Fructose-bisphosphate aldolase A (Oryctolagus cuniculus, UniProt P00883); assay: Inhibitory activity against class I FBP aldolase from rabbit
T1 sequence (P00883 whole entry): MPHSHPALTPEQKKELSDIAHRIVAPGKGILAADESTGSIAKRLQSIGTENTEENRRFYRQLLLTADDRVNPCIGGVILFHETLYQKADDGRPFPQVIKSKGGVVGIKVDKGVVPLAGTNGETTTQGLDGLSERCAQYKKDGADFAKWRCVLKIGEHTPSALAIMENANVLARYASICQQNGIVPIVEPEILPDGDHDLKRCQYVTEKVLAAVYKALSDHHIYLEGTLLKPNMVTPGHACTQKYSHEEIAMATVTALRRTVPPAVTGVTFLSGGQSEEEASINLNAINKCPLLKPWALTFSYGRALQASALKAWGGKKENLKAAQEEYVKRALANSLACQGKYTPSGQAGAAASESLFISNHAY

[2] = molecular target: T2, Fructose-bisphosphate aldolase class 2 (Escherichia coli K-12, UniProt P0AB71); assay: Inhibitory activity against class II FBP aldolase from Escherichia coli
T2 sequence (P0AB71 whole entry): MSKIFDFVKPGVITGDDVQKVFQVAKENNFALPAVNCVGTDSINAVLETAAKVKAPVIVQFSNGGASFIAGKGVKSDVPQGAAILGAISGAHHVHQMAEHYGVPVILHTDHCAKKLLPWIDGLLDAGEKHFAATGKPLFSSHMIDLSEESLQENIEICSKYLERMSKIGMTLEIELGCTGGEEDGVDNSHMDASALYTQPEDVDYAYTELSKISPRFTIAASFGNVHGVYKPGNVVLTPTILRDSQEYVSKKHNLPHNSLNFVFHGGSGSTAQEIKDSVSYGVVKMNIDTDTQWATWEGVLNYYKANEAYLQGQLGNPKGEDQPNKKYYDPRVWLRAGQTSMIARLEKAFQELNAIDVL

SMILES	Ki [1]	Ki [2]
O=C(CCP(=O)(O)O)NO	> 1000 µM	> 1000 µM
O=C(CCP(=O)(O)O)NS(=O)(=O)c1ccccc1	> 10000 µM	> 10000 µM
O=C(COP(=O)(O)O)NS(=O)(=O)c1ccccc1	> 10000 µM	100 µM
CS(=O)(=O)NC(=O)CCP(=O)(O)O	> 10000 µM	> 10000 µM
CS(=O)(=O)NC(=O)COP(=O)(O)O	> 10000 µM	350 µM
O=C(COP(=O)(O)O)NO [PHOSPHOGLYCOLOHYDROXAMATE]	1 µM	0.01 µM

Reference: ChEMBL document CHEMBL1141967, “N-Sulfonyl hydroxamate derivatives as inhibitors of class II fructose-1,6-diphosphate aldolase” (Bioorg Med Chem Lett, 2005)
